Source: patent US20250108032A1, “METHODS OF TREATING TYPE 1 DIABETES AND KIDNEY DISEASE” (LEXICON PHARMACEUTICALS, INC., priority 2023, published 2025)

Legend:
[1] = system: patients with type 2 diabetes mellitus and CKD (eGFR 25 to 60 ml per minute per 1.73 m^2); type: in vivo
Description: The cardiorenal protective properties of sotagliflozin in patients with type 2 diabetes informed research that led to the present invention. […] The primary end point was changed during the trial to the composite of the total number of deaths from cardiovascular causes, hospitalizations for heart failure, and urgent visits for heart failure.
Of 19.188 patients screened, 10,584 were enrolled, with 5,292 assigned to the sotagliflozin group and 5,292 assigned to the placebo group and followed for a median of 16 months. The rate of primary end-point events was 5.6 events per 100 patient-years in the sotagliflozin group and 7.5 events per 100 patient-years in the placebo group: hazard ratio, 0.74; 95% confidence interval (CI), 0.63 to 0.88; P<0.001. The rate of deaths from cardiovascular causes per 100 patient-years was 2.2 with sotagliflozin and 2.4 with placebo (hazard ratio, 0.90; 95% CI, 0.73 to 1.12; P=0.35). For the original coprimary end point of the first occurrence of death from cardiovascular causes, nonfatal myocardial infarction, or nonfatal stroke, the hazard ratio was 0.84 (95% CI, 0.72 to 0.99); for the original coprimary end point of the first occurrence of death from cardiovascular causes or hospitalization for heart failure, the hazard ratio was 0.77 (95% CI, 0.66 to 0.91). Diarrhea, genital mycotic infections and volume depletion were more common with sotagliflozin than with placebo.
Table 1 provides the number and type of cardiorenal events observed during the trial, wherein each of the sotagliflozin and placebo groups contained 5292 patients.

[2] = system: adult patients with type 1 diabetes mellitus (overall and CKD cohorts); assay: Pooled inTandem1 and inTandem2 double-blind clinical studies, sotagliflozin adjunct to optimized insulin; type: in vivo, human; settings: for No Weight Gain at Week 52, HbA1c <7.0%: Absolute difference in % / No Weight Gain at Week 52, reduction in HbA1c ≥0.5%: Absolute difference in % / No Weight Gain at Week 52: % with absolute reduction in HbA1c ≥0.5% / No Weight Gain at Week 52: Percentage HbA1c <7.0% / Weight, LS Mean (SE) kg: Percent Change (%) from Baseline at Week 24 / Weight, LS Mean (SE) kg: Percent Change (%) from Baseline at Week 52 / Weight, LS Mean (SE): Treatment Comparison vs. PBO, Week 24 / Weight, LS Mean (SE): Treatment Comparison vs. PBO, Week 52 / Any TEAE, n (%) / Diarrhea, n (%) / Genital mycotic infection, n (%) / HbA1c change from Baseline, Week 52 Treatment Comparison LS Mean (SE), %: overall cohort; for HbA1c change from Baseline, Week 24 Treatment Comparison LS Mean (SE), % / HbA1c change from Baseline, Week 52 Treatment Comparison LS Mean (SE), %: vs placebo
Experimental: The efficacy of sotagliflozin as adjunct therapy in adult patients with type 1 diabetes mellitus who have inadequate glycemic control with insulin therapy was evaluated in two multicenter, double-blind clinical studies named “in Tandem1” and “in Tandem2”. Patients were randomized into three treatment groups: those treated with sotagliflozin 200 mg/day, those treated with sotagliflozin 400 mg/day; and those treated with placebo.
Details of the in Tandem1 study have been reported. See, e.g., Buse, J. B., et al., “Sotagliflozin in Combination With Optimized Insulin Therapy in Adults With Type 1 Diabetes: The North American in Tandem1 Study” Diabetes Care 2018; 41: 1970-1980. Details of the in Tandem2 study have also been reported. See, e.g., Danne. T., et al., “HbA and Hypoglycemia 1c Reductions at 24 and 52 Weeks With Sotagliflozin in Combination With Insulin in Adults With Type 1 Diabetes: The European in Tandem2 Study” Diabetes Care 2018; 41: 1981-1990. Both studies included men and nonpregnant women aged≥18 years with T1D using either multiple daily injections (MDI) or subcutaneous insulin infusion (SCII) for insulin delivery and whose HbA1C was 7.0-11.0% at screening. Patients with β-hydroxybutyrate (BHB) levels>0.6 mmol/L at screening were excluded.
In both studies, insulin therapy was optimized for six weeks prior to randomization, and optimized insulin continued until the study conclusion at week 52. After a two-week placebo run-in, patients were randomly assigned to double-blind treatment with sotagliflozin 200 or 400 mg or placebo for 52 weeks. Insulin optimization, which refers to the adjustment of insulin to meet standard-of-care glycemic targets, starting six weeks prior to randomization and continued for the entire study. An independent insulin dose monitoring committee (IDMC) assessed standard-of-care adherence and provided feedback to the principal investigator if deviations from standard of care were observed prior to week 24. HbA1c was masked to study staff during this period. Between week 24 and 52, insulin optimization continued without input from the IDMC, and HbA1c values were unmasked. Safety was monitored for 30 days after the last dose of study medication.
The primary endpoint of both studies was the change from baseline to week 24 in glycated hemoglobin A1C of either dose of sotagliflozin (400 mg or 200 mg) treatment group compared to placebo. Other endpoints included the change from baseline of sotagliflozin versus placebo in: the proportion of patients with A1C<7.0% and no episode of severe hypoglycemia and no episode of DKA; body weight, bolus insulin dose, fasting plasma glucose (FPG), diabetes treatment satisfaction questionnaire status (DTSQs) score; and Diabetes Distress Screening Scale (DDS2) questionnaire score.
Efficacy analyses were based on the mITT (modified Intent-to-Treat) population. Primary efficacy analyses were conducted based on data collected during the Core Treatment Period (Baseline through and including the week 24 visit assessments). As shown below in Table 2, sotagliflozin achieved its primary endpoint by leading to statistically significant lower A1C levels for both doses when compared to placebo in the pooled in Tandem1/in Tandem2 study results after the core treatment and long-term extension periods.

[3] = T2D and CKD, 5292 patients per group
[4] = 200 mg/day vs placebo, CKD Cohort, 52 weeks
[5] = 200 mg/day vs placebo, Overall Cohort, 52 weeks
[6] = 200 mg/day, CKD Cohort N = 85, 52 weeks
[7] = 200 mg/day, overall cohort N = 524, positively adjudicated, through 52 Weeks
[8] = 400 mg/day vs placebo, CKD Cohort, 52 weeks
[9] = 400 mg/day vs placebo, Overall Cohort, 52 weeks
[10] = 400 mg/day, CKD Cohort N = 76, 52 weeks
[11] = 400 mg/day, overall cohort N = 525, positively adjudicated, through 52 Weeks

CCOc1ccc(Cc2cc([C@@H]3O[C@H](SC)[C@@H](O)[C@H](O)[C@H]3O)ccc2Cl)cc1 [sotagliflozin, (2S,3R,4R,5S,6R)-2-(4-chloro-3-(4-ethoxybenzyl)phenyl)-6-(methylthio)tetrahydro-2H-pyran-3,4,5-triol]
50% decline in eGFR (sustained or last value), n (%) [1, 3]: 75 (1.4) n (%) | Chronic dialysis or transplant, n (%) [1, 3]: 15 (0.3) n (%) | End-stage kidney disease, n (%) [1, 3]: 50 (0.9) n (%) | Renal death, n (%) [1, 3]: 8 (0.2) n (%) | eGFR <15 mL/min/m^2 (sustained or last value), n (%) [1, 3]: 41 (0.8) n (%) | First event in composite, n (%) ([1]; cardiorenal composite, T2D and CKD, 5292 patients per group, median follow-up 16 months): 239 (4.5) n (%) | risk of cardiorenal endpoints ([1]; compared to placebo, FIG. 1): significantly reduced | rate of primary end-point events ([1]; composite of deaths from cardiovascular causes, hospitalizations for heart failure, urgent visits for heart failure, median 16 months): 5.6 events per 100 patient-years | Diarrhea, genital mycotic infections and volume depletion ([1]; human, in vivo): more common | rate of deaths from cardiovascular causes ([1]; median follow-up 16 months): 2.2 per 100 patient-years | 50% decline in eGFR (sustained or last value), HR (95% CI) ([1]; vs placebo): 0.60 (0.45, 0.81) | End-stage kidney disease, HR (95% CI) ([1]; vs placebo): 0.63 (0.45, 0.91) | Renal death, HR (95% CI) ([1]; vs placebo): 1.59 (0.52, 4.86) | eGFR <15 mL/min/m^2 (sustained or last value), HR (95% CI) ([1]; vs placebo): 0.60 (0.41, 0.88) | primary end point hazard ratio ([1]; vs placebo, 95% CI 0.63 to 0.88): 0.74 | hazard ratio, original coprimary end point: first occurrence of death from cardiovascular causes or hospitalization for heart failure ([1]; vs placebo, 95% CI 0.66 to 0.91): 0.77 | hazard ratio, original coprimary end point: first occurrence of death from cardiovascular causes, nonfatal myocardial infarction, or nonfatal stroke ([1]; vs placebo, 95% CI 0.72 to 0.99): 0.84 | First event in composite, HR (95% CI) ([1]; vs placebo, T2D and CKD): 0.77 (0.65, 0.91) | No Weight Gain at Week 52, HbA1c <7.0%: Absolute difference in % ([2]; 200 mg/day vs PBO): 12.6% | No Weight Gain at Week 52, reduction in HbA1c ≥0.5%: Absolute difference in % ([2]; 200 mg/day vs PBO): 14.9% | DKA, HR (95% CI) [2, 4]: 3.2 (0.4, 29.0) | Severe hypoglycemia, HR (95% CI) [2, 4]: 0.34 (0.13, 0.91) | DKA, HR (95% CI) [2, 5]: 15.0 (2.0, 113.3) | Severe hypoglycemia, HR (95% CI) [2, 5]: 0.76 (0.47, 1.22) | DKA, n (%) [2, 6]: 4 (4.7) n (%) | Severe hypoglycemia, n (%) [2, 6]: 6 (7.1) n (%) | No Weight Gain at Week 52: % with absolute reduction in HbA1c ≥0.5% ([2]; 200 mg/day): 23.7% | No Weight Gain at Week 52: Percentage HbA1c <7.0% ([2]; 200 mg/day): 21.8% | Weight, LS Mean (SE) kg: Percent Change (%) from Baseline at Week 24 ([2]; 200 mg/day): −1.70 (0.137) % | Weight, LS Mean (SE) kg: Percent Change (%) from Baseline at Week 52 ([2]; 200 mg/day): −2.31 (0.208) % | Weight, LS Mean (SE): Treatment Comparison vs. PBO, Week 24 ([2]; 200 mg/day): −2.17 (0.188) % | Weight, LS Mean (SE): Treatment Comparison vs. PBO, Week 52 ([2]; 200 mg/day): −3.21 (0.291) % | DKA, n (%) [2, 7]: 15 (2.9) n (%) | Severe hypoglycemia, n (%) [2, 7]: 30 (5.7) n (%) | HbA1c change from Baseline, Week 24 Treatment Comparison LS Mean (SE), % ([2]; 200 mg/day, overall cohort n = 524): −0.36% | Any TEAE, n (%) ([2]; 200 mg/day, through 52 Weeks): 393 (75.0) n (%) | Diarrhea, n (%) ([2]; 200 mg/day, through 52 Weeks): 34 (6.5) n (%) | Genital mycotic infection, n (%) ([2]; 200 mg/day, through 52 Weeks): 48 (9.2) n (%) | HbA1c change from Baseline, Week 52 Treatment Comparison LS Mean (SE), % ([2]; 200 mg/day): −0.23% | No Weight Gain at Week 52, HbA1c <7.0%: Absolute difference in % ([2]; 400 mg/day vs PBO): 17.0% | No Weight Gain at Week 52, reduction in HbA1c ≥0.5%: Absolute difference in % ([2]; 400 mg/day vs PBO): 20.0% | DKA, HR (95% CI) [2, 8]: 1.9 (0.2, 20.8) | Severe hypoglycemia, HR (95% CI) [2, 8]: 0.2 (0.06, 0.70) | DKA, HR (95% CI) [2, 9]: 20.3 (2.7, 151.2) | Severe hypoglycemia, HR (95% CI) [2, 9]: 0.58 (0.35, 0.97) | DKA, n (%) [2, 10]: 2 (2.6) n (%) | Severe hypoglycemia, n (%) [2, 10]: 3 (3.9) n (%) | No Weight Gain at Week 52: % with absolute reduction in HbA1c ≥0.5% ([2]; 400 mg/day): 28.8% | No Weight Gain at Week 52: Percentage HbA1c <7.0% ([2]; 400 mg/day): 26.1% | Weight, LS Mean (SE) kg: Percent Change (%) from Baseline at Week 24 ([2]; 400 mg/day): −2.55 (0.137) % | Weight, LS Mean (SE) kg: Percent Change (%) from Baseline at Week 52 ([2]; 400 mg/day): −3.33 (0.209) % | Weight, LS Mean (SE): Treatment Comparison vs. PBO, Week 24 ([2]; 400 mg/day): −3.02 (0.188) % | Weight, LS Mean (SE): Treatment Comparison vs. PBO, Week 52 ([2]; 400 mg/day): −4.24 (0.291) % | DKA, n (%) [2, 11]: 20 (3.8) n (%) | Severe hypoglycemia, n (%) [2, 11]: 23 (4.4) n (%) | HbA1c change from Baseline, Week 24 Treatment Comparison LS Mean (SE), % ([2]; 400 mg/day, overall cohort n = 525): −0.38% | Any TEAE, n (%) ([2]; 400 mg/day, through 52 Weeks): 390 (74.3) n (%) | Diarrhea, n (%) ([2]; 400 mg/day, through 52 Weeks): 46 (8.8) n (%) | Genital mycotic infection, n (%) ([2]; 400 mg/day, through 52 Weeks): 63 (12.0) n (%) | HbA1c change from Baseline, Week 52 Treatment Comparison LS Mean (SE), % ([2]; 400 mg/day): −0.32% | efficacy (A1C, body weight, DTSQ change from baseline) by BMI subgroup ([2]; patients with BMI≥27 kg/m^2 compared to the lower BMI subgroup, Week 24): systematically better | relative risk of severe hypoglycemia ([2]; sotagliflozin compared to placebo in the CKD cohort): lower | relative risk of DKA ([2]; sotagliflozin relative to placebo in the CKD cohort): not significantly higher | A1C and BW in the CKD subgroup ([2]; to a similar extent as the overall cohort): significantly reduced
